# Measured values published in BindingDB's records for doi:10.1016/s0960-894x(03)00677-2 (Pharmacor, 2003).
# pIC50: −log10 of the molar value.
# Molecular target: T1, Dimer of Gag-Pol polyprotein [501-599] (Human immunodeficiency virus 1, UniProt P03367)
# T1 construct: 501-599
# Assay: Protease Inhibition Assay
# Details: pH 4.7; 30 °C
# Experimental: HIV-1 protease activity was measured by a continuous fluorometric assay using the internally quenched fluorogenic substrate DABCYL-Ser-Gln-Asn-Tyr-Pro-Ile-Val-Gln-EDANS. The proteolytic activity can be monitored by the increase in fluorescence intensity, and the protease products were analyzed by HPLC.
row,Compound,pIC50
1,"O[C@@H](C[C@@H](COCc1ccccc1)OCc1ccccc1)[C@@H](COCc1ccccc1)OCc1ccccc1 [(2R,3S,5S)-1,2,5,6-tetrakis(benzyloxy)hexan-3-ol]",< 4.30
2,"O[C@@H]([C@H](O)[C@@H](Cc1ccccc1)OCc1ccccc1)[C@@H](Cc1ccccc1)OCc1ccccc1 [(2R,3S,4S,5R)-2,5-bis(benzyloxy)-1,6-diphenylhexane-3,4-diol]",< 4.30
3,"O[C@H]([C@H](O)[C@H](COCc1ccccc1)OCc1ccccc1)[C@@H](COCc1ccccc1)OCc1ccccc1 [(2R,3R,4S,5S)-1,2,5,6-tetrakis(benzyloxy)hexane-3,4-diol]",< 4.30
4,"O[C@H]([C@H](O)[C@@H](COCc1ccccc1)OCc1ccccc1)[C@@H](COCc1ccccc1)OCc1ccccc1 [(2R,3R,4S,5R)-1,2,5,6-tetrakis(benzyloxy)hexane-3,4-diol]",< 4.30
5,"O[C@@H]([C@H](O)[C@@H](COCc1ccccc1)OCc1ccccc1)[C@H](COCc1ccccc1)OCc1ccccc1 [(2R,3S,4S,5S)-1,2,5,6-tetrakis(benzyloxy)hexane-3,4-diol]",< 4.30
6,"O[C@@H]([C@H](O)[C@@H](COc1ccccc1)OCc1ccccc1)[C@@H](COc1ccccc1)OCc1ccccc1 [(2R,3S,4S,5R)-2,5-bis(benzyloxy)-1,6-diphenoxyhexane-3,4-diol]",< 4.30
7,"O[C@H]([C@@H](O)[C@H](COCc1ccccc1)OCc1ccccc1)[C@H](COCc1ccccc1)OCc1ccccc1 [(2S,3R,4R,5S)-1,2,5,6-tetrakis(benzyloxy)hexane-3,4-diol]",< 4.30
